The target of this assay is T1, mGluR2 (Rattus norvegicus, UniProt P31421).
T1 construct: horizontal sections of mGluR2 KO and WT mouse brain and of normal female Wistar rat brain; from tissue; host or cells: normal female Wistar rat brain sections, 20 µm
Briefly: In vitro autoradiography binding on normal female Wistar rat brain sections. The method, then: In vitro autoradiography studies were performed on horizontal sections of mGluR2 KO and WT mouse brain and of normal female Wistar rat brain (20 μm). The sections were preincubated in 50 mM Tris-HCl (MgCl2 2 mM, CaCl2 2 mM; pH 7.0) for 10 min (two times) at room temperature and dried. Next, the brain sections were incubated with tracer [^11C]-2, [^11C]-5, [^11C]-4, [^11C]-1 or [^18F]-3 diluted in the same Tris-HCl buffer as used for the preincubation additionally containing 0.1% BSA or with this tracer solution in the presence of 10 μM Co. No. 2 or Co. No. 1. The mouse brain sections were incubated with 17 kBq of carbon-11 labeled tracer and 1.7 kBq of fluorine-18 labeled tracer. For the rat brain sections this was 44 kBq of carbon-11 labeled tracer and 0.44 kBq of fluorine-18 labeled tracer. After 30 min of incubation, the brain sections were washed three times for 5 min in ice-cold Tris-HCl 50 mM ((MgCl2 2 mM, CaCl2 2 mM; pH 7.0+0.1% BSA buffer). After a quick dip in purified ice-cold water, the slides were dried. Autoradiograms were obtained by exposing the slides overnight to a high-performance phosphor storage screen (super-resolution screen; Perkin Elmer, Waltham, USA). The screens were read using a Cyclone Plus system (Perkin Elmer) and analysed using Optiquant software (Perkin Elmer). The radioactivity concentration in the autoradiograms was expressed in digital light units (DLU)/mm^2.
To obtain additional information on the specificity of the tracer binding to mGluR2, in vitro autoradiography binding studies were performed on mGluR2 KO and WT mouse brain sections and on normal rat brain sections in presence or absence of a high concentration of mGluR2 NAM compounds (Co. No. 1 or Co. No. 2).

The mark [1] stands for this setting: self-blocking or blocking with Co. No. 1 (10 μM).

T1 sequence (P31421 19-872): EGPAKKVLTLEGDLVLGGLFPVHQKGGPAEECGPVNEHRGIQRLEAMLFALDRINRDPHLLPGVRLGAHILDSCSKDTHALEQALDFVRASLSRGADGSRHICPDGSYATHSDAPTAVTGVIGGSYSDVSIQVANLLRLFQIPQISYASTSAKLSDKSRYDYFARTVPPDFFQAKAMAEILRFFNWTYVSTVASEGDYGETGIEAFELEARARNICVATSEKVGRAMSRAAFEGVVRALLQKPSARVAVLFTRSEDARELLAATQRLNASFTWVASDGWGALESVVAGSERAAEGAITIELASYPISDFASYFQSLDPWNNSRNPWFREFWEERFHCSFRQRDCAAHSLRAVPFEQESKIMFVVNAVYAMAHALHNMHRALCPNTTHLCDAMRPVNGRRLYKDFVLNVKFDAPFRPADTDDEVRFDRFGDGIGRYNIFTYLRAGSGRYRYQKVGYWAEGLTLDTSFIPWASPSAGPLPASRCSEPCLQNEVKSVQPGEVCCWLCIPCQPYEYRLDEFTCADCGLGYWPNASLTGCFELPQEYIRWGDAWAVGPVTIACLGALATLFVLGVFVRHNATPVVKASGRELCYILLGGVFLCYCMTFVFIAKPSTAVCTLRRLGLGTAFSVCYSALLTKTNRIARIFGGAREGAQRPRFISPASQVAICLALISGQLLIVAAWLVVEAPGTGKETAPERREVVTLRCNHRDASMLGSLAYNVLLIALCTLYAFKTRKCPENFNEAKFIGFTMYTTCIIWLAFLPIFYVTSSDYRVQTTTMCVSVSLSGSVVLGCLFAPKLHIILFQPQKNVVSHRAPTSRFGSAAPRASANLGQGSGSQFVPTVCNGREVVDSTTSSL

Consider `C[C@H]1CN(c2ccc(C(F)(F)F)cc2)C(=O)c2c(-c3ccnc(N[11CH3])c3)cnn21` [[^11C]-2], for which the “total binding to normal rat brain sections” value (in words) is on record as “high binding”. Moreover, under setting [1], the “decrease in binding in rat cortex” value is approximately 91% and the “decrease in binding in rat striatum” value is reported as approximately 78%.

(Values after patent US10967078B2, “Radiolabelled mGluR2 PET ligands” (Janssen Pharmaceutica NV, priority 2014, dated 2021).)
